According to patent publication EP4450494A1, “INDOLE DERIVATIVES AS HISTONE DEACETYLASE (HDAC) INHIBITORS FOR THE TREATMENT OF CANCER” (Consejo Superior De Investigaciones Científicas, priority 2023, dated 2024):

Legend:
Format in all cases: cell-based
[1] = system: U87 glioblastoma cell line; assay: MTT cell viability dose-response assay in U87; details: MTT assay after 72 h of treatment
Experimental: (§1) As a first screening, dose-response assays were done in U87 glioblastoma cell line in order to obtain the IC50 values of the different compounds. Cells were seeded at a density of 1.500 cells/well in 96-well plates, incubated overnight and treated with increasing concentrations of the corresponding compounds. After 72 h of treatment, cell viability was determined by MTT assay. For this, MTT was added to the wells and cells were incubated for 3,5 h at 37 °C and 5% CO2. Then, media was removed and DMSO was added to resuspend the formed crystals. Absorbance at 570 nm was measured using a spectrophotometer, and GraphPad Prism software was used to analyze the results and calculate the IC50 values.

U251 = assay: MTT cell viability assay in U251; details: Homo sapiens, U-251, MTT assay after 72 h of treatment
Experimental: as §1
(§2) With this aim, additional MTT assays were carried out following the same protocol in other glioblastoma conventional (U251) and patient-derived (GNS179) cell lines. […]

[2] = system: conventional (U251) and patient-derived (GNS166 and GNS179) cell lines; assay: Immunofluorescence for caspase-3 (apoptosis) in additional glioblastoma cell lines; details: dose-dependent
Experimental: (§3) For this, U87 cells were incubated for 48 h with increasing concentrations of the compounds. After that, cells were incubated with phosphohistone H3 or caspase-3 antibodies for the study of proliferation or apoptosis, respectively. Alexa Fluor 555 IgG anti-mouse and anti-rabbit secondary antibodies were used, and nuclear DNA was stained with DAPI. Pictures were taken with an Eclipse 80i microscope.
(§4) Furthermore, immunofluorescence assays for DDI199 were completed in additional conventional (U251) and patient-derived (GNS166 and GNS179) cell lines.

GNS179 = assay: MTT cell viability assay in GNS179; details: GNS179 (patient-derived); MTT assay after 72 h of treatment
Experimental: as §1, §2

HDAC6 = molecular target: T1, HDAC6 (Homo sapiens, UniProt Q9UBN7); assay: Western blot of HDAC6 and acetylated α-tubulin in treated U87 cells; details: 48 h, effect higher with increasing concentrations
T1 construct: endogenous in cells; host or cells: U87 glioblastoma cell line
T1 sequence (Q9UBN7 1-1215): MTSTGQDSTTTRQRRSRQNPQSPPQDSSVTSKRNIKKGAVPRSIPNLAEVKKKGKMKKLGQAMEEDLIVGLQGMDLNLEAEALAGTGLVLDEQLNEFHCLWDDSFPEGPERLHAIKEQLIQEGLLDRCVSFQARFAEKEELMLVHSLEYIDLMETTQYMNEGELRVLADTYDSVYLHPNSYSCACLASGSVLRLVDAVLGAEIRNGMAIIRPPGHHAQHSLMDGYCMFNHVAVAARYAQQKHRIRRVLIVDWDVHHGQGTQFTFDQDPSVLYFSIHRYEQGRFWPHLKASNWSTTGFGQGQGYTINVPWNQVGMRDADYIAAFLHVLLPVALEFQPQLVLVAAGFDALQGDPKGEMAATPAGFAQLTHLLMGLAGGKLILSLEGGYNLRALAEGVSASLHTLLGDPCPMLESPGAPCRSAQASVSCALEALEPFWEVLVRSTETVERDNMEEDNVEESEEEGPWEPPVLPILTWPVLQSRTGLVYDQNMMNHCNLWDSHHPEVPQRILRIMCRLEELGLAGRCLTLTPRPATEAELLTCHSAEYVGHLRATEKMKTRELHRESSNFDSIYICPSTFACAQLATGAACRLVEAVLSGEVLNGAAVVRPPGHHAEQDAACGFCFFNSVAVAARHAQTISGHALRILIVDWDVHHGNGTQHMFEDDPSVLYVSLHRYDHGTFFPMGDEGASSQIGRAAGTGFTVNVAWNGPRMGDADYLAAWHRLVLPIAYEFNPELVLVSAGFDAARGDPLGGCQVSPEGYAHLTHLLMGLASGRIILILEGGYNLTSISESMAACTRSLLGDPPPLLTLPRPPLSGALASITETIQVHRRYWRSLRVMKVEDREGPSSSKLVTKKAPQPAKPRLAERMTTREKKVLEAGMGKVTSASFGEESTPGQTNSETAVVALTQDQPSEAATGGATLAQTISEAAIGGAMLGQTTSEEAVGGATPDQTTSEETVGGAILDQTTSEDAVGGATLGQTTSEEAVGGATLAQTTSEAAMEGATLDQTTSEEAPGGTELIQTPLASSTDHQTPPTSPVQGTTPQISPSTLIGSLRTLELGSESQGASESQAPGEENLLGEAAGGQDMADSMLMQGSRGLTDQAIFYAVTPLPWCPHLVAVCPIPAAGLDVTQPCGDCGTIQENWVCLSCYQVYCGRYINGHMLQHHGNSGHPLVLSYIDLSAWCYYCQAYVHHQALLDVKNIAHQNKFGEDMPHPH
Experimental: Basing on the IC50 values, DDI199, MTP142, MTP156, MTP150, FRB44 and FRB56 were selected for further studies, as they seem to be the most promising compounds (see figure 1). Thus, the capacity of these compounds as HDAC inhibitors was tested. […] For this, specific antibodies against HDAC6 and HDAC1, and acetylated α-tubulin and acetylated histone H3 were used, and β-actin was included as control. Secondary antibodies were horseradish peroxidase (HRP)-linked anti-rabbit and anti-mouse and detection was performed by chemiluminiscence with NOVEX ECL Chemi Substrate.

[3] = system: conventional (U251) and patient-derived (GNS166 and GNS179) cell lines; assay: Immunofluorescence for phosphohistone H3 (proliferation) in additional glioblastoma cell lines; details: dose-dependent
Experimental: as §3, §4

SMILES | IC50 [1] | IC50 (U251) | apoptosis (caspase-3 positive cells) [2] | IC50 (GNS179) | HDAC6 inhibitory capacity (HDAC6) | cell proliferation (PH3 positive cells) [3]
C#CCN(Cc1cc2cc(OCCCN3CCCCC3)ccc2n1S(=O)(=O)c1ccccc1)C(=O)CCCCCCC(=O)NO [DDI199, N1-Hydroxy-N8-((1-(phenylsulfonyl)-5-(3-(piperidin-1-yl)propoxy)-1H-indol-2-yl)methyl)-N8-(prop-2-yn-1-yl)octanediamide] | 3.23 µM | 5.45 µM | induces apoptosis | 4.33 µM | high HDAC6 inhibitory capacity | significantly reduces cell proliferation
COc1ccc2c(ccn2S(=O)(=O)c2cccc(/C=C/C(=O)NO)c2)c1 [MTP142, (E)-N-Hydroxy-3-(3-((5-methoxy-1H-indol-1-yl)sulfonyl)phenyl)acrylamide] | – | – | – | – | inhibits HDAC6, although this effect is much slighter than that for DDI199 | –
